Values of other authors, collected in paper PMC11974678 (bioRxiv, 2025).

Target: T1, FABP1 (Homo sapiens, UniProt P07148)
T1 sequence (P07148 with tags, fused parts or gaps): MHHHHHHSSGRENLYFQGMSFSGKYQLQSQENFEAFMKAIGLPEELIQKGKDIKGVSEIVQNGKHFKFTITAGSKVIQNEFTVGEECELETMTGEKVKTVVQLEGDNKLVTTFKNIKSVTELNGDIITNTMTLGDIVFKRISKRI
Conditions: read-out: KD of binding to FABP1

For `O=C(O)C(F)(F)C(F)(F)C(F)(F)C(F)(F)C(F)(F)C(F)(F)C(F)(F)F` [335-67-1, perfluorooctanoic acid], the Kd is given as 18.8 µM.
